In patent US4350700A, “Pharmaceutical composition containing 1,3,5-substituted biuret compound” (Taiho Pharmaceutical Company, Limited, priority 1979, dated 1982):
Where two headings read alike, the source gives them in different places.

Experiments:
[1] = tested on: ddy strain of male mice; test: Acute toxicity (oral, general symptom and death observed for 7 days); type: in vivo; details: for Acute toxicity, death number of mice/number of mice tested: 7 days
Protocol: (§1) Next, several tests for determining the pharmacological properties, in that acute toxicity, anti-pyretic activity, analgesic activity and anti-inflammatory activity of the present 1,3,5-substituted biuret compounds of the formula (1) were conducted and the test results are shown in Table (2). In the tests, each compounds to be tested was used as a suspension in 0.25% carboxymethylcellulose solution. Methods for testing are explained as follows:
The ddy strain of male mice (body weight, 20-25 g) were used as test animals. The mice were fasted overnight and the compound to be tested was administered orally. […] The lethal dose (mg/kg, body weight) of the test compound was determined in connection with the death number of mice/the number of mice tested. In Table 2, the values indicated with Δ marks are 50% lethal dose, LD50 (mg/kg, body weight).

[2] = tested on: 10% dry-yeast suspension-induced fever of rats; test: Anti-pyretic activity (dry-yeast induced fever, febril index); type: in vivo, rats (Wistar strain, male); details: oral, febril index up to 4 hours after administration, dose not stated
Protocol: as §1
According to the method reported by Tanabe [Folia Pharmacologia Japonica, Vol. 73, pp. 803 (1977)], the Wistar strain of male rats (150-180 g body weight) were used as test animals. The rats were fasted overnight, and 1 ml/100 g (body weight) of 10% dry-yeast suspension were subcutaneously injected on the back of the rats. Five hours afte the injection, the test compound was administered orally, then the body temperature of the rat was measured time sequences. Anti-pyretic activity of the test compound was determined as the FI (febril index) by integrating pyrogenetic curve up to 4 hours after the administration of the test compound with time, and indicated as inhibitory ratio (%) shown by the following formula, [formula]

[3] = tested on: carrageenin-induced inflammation of the hindpaw of the rat; test: Anti-inflammatory activity, acute carrageenin-induced inflammatory test; type: in vivo, rats (Wistar strain, male)
Protocol: as §1
4. Anti-inflammatory Activity
According to the method of acute carrageenin-induced inflammatory test [Folia Pharmacologia Japonica, Vol. 56, pp. 575 (1960)], the Wistar strain of male rats (body weight, 150-180 g) were used as test animals. The rats were fasted overnight, 100 mg/kg body weight of the test compound was administered orally, then 1 hour after the administration, 0.1 ml of 1% carrageenin solution, as the inflammation inducing agent, was injected subcutaneously to the hindpaw of the rat and the volume of the hindpaw was measured at time sequences. Anti-inflammatory activity of the test compound was calculated as inflammation inhibitory ratio (%) at 3 hours after the injection of inflammation inducing agent.

[4] = tested on: pain reaction of the mouse caused by a clamp; test: Analgesic activity, Haffner method; type: in vivo, mice (ddy strain, male); details: for Analgesic activity, Haffner method, inhibitory ratio: mice
Protocol: as §1
According to the modified method reported by Fujimura et al., [Bulletin of the Institute for Chemical Research, Kyoto University, No. 25, pp. 36 (1951)], the ddy strain of male mice (body weight, 20-25 g) were used as test animals. The mice were fasted overnight, 100 mg/kg body weight of the test compound was administered orally, then 45 minutes after the administration, the threshhold amount (1.5-2.5 mg/kg body weight) of morphine hydrochloride was injected subcutaneously. Then 1-hour pain reaction of the mouse caused by a clamp was observed. Analgesic activity of the test compound was calculated as the inhibitory ratio (%). In Table 2, the values in parentheses show the data obtained from the test by using the dosage other than 100 mg/kg body weight. Further, the values indicated with Δ marks show 50% effective dose, ED50 (mg/kg body weight).

[5] = tested on: acetic acid-induced stretching symptom of mouse; test: Analgesic activity, acetic acid-induced stretching method; type: in vivo, mice (ddy strain, male); details: read-out: Analgesic activity, acetic acid-induced stretching method, inhibitory ratio
Protocol: as §1
(1) Acetic acid-induced stretching method
According to the method reported by Koster et.al., [Fed. Proc., Vol. 18, pp. 412 (1959)], the ddy strain of male mice (body weight, 20-25 g) were used as test animals. The mice were fasted overnight, 100 mg/kg body weight of the test compound was administered orally, then 1 hour after the administration, 0.2 ml of 0.7% acetic acid solution was injected intraperitoneally. The acetic acid-induced stretching symptom of mouse was observed. Analgesic activity of the test compound was calculated as the inhibitory ratio (%). In Table 2, the values in parentheses show the data obtained from the test by using the dosage other than 100 mg/kg body weight. Further, the values indicated with Δ marks show 50% effective dose, ED50 (mg/kg body weight).

[6] = Rattus norvegicus, 100 mg/kg oral, rats, 3 hours after carrageenin, read-out: Anti-inflammatory activity, inflammation inhibitory ratio
[7] = Rattus norvegicus, po, 3 h, read-out: Anti-inflammatory activity, inflammation inhibitory ratio

Row | Compound | Anti-pyretic activity, inhibitory ratio [2] | Analgesic activity, Haffner method, inhibitory ratio ([4]; 100 mg/kg oral) | Acute toxicity, death number of mice/number of mice tested ([1]; 2000 mg/kg oral) | inhibition in vivo at 100 mg/kg ([5]; po) | inhibition in vivo at 100 mg/kg [3, 6] | Acute toxicity, death number of mice/number of mice tested ([1]; 1000 mg/kg oral) | further results
1 | 1,3-Dimethyl-5-(4-methyl-2-pyridyl)biuret [compound 18] | 60% | 25% | – | – | – | – | Acute toxicity, 50% lethal dose LD50 ([1]; oral, 7 days observation (Δ values)): 1500 mg/kg; Anti-inflammatory activity, inflammation inhibitory ratio ([3]; 100 mg/kg oral, rats, 3 hours after carrageenin): 20%
2 | CNC(=O)N(C)C(=O)Nc1ccccc1F [Compound No. 4] | 79% | 25% | 0/4 | 37.5% | 41% | – | –
3 | CNC(=O)N(C)C(=O)Nc1ccccc1Cl [Compound No. 5, 1,3-Dimethyl-5-(2-chlorophenyl)biuret] | 28% | – | 0/4 | – | – | – | inhibition in vivo at 200 mg/kg ([5]; po): 37.5%; inhibition in vivo at 200 mg/kg ([3]; Rattus norvegicus, 200 mg/kg oral, rats, 3 hours after carrageenin, read-out: Anti-inflammatory activity, inflammation inhibitory ratio): 53%; Analgesic activity, Haffner method, inhibitory ratio ([4]; 200 mg/kg oral): 37.5%
4 | CCCNC(=O)N(C)C(=O)Nc1ccccc1 [Compound No. 41, 1-n-Propyl-3-methyl-5-phenylbiuret] | 65% | 37.5% | 0/4 | 62.5% | 67% | – | –
5 | CC(C)NC(=O)N(C)C(=O)Nc1ccccc1 [Compound No. 43, 1-Isopropyl-3-methyl-5-phenylbiuret] | 38% | 25% | 0/4 | 50% | – | – | inhibition in vivo at 100 mg/kg [3, 7]: 51%
6 | C=CCNC(=O)N(C)C(=O)Nc1ccccc1 [Compound No. 45] | 125% | 12.5% | 4/4 | 50% | – | 2/4 | inhibition in vivo at 100 mg/kg [3, 7]: 59%
7 | CCCCNC(=O)N(C)C(=O)Nc1ccccc1 [Compound No. 47] | 19% | 62.5% | 0/4 | 75% | 27% | – | –
8 | CC(C)CNC(=O)N(C)C(=O)Nc1ccccc1 [Compound No. 49, 1-Isobutyl-3-methyl-5-phenylbiuret] | 55% | – | 0/4 | – | 57% | – | inhibition in vivo at 40 mg/kg ([5]; po): 50%; ED50 ([4]; Mus musculus, oral, mice (Δ values; range in parentheses), read-out: Analgesic activity, Haffner method, 50% effective dose ED50): 50 mg/kg
9 | CNC(=O)N(C)C(=O)Nc1ccccc1C(F)(F)F [compound 7, 1,3-Dimethyl-5-(2-trifluoromethylphenyl)biuret] | 121% | 12.5% | 3/4 | 62.5% | – | 0/4 | –
10 | CNC(=O)N(C)C(=O)Nc1ccc(CC(=O)O)cc1 [compound 11, 1,3-Dimethyl-5-(4-carboxymethylphenyl)biuret] | 7% | 37.5% | 0/4 | 25% | – | – | –
11 | CNC(=O)N(C)C(=O)Nc1cc(C)ccn1 [compound 17] | 55% | 25% | 3/4 | – | – | 0/4 | inhibition in vivo at 100 mg/kg ([5]; 100 mg/kg oral, mice): 25%; inhibition in vivo at 100 mg/kg [3, 7]: 33%
12 | CNC(=O)N(C)C(=O)Nc1nccs1 [compound 20] | 112% | 25% | – | – | 46% | 3/4 | inhibition in vivo at 100 mg/kg ([5]; 100 mg/kg oral, mice): 25%
13 | CCNC(=O)N(C)C(=O)Nc1ccc(F)cc1 [compound 32, 1-Ethyl-3-methyl-5-(4-fluorophenyl)biuret] | 63% | 37.5% | 4/4 | – | – | 2/4 | inhibition in vivo at 100 mg/kg ([5]; 100 mg/kg oral, mice): 100%
14 | CCNC(=O)N(C)C(=O)Nc1ccc(N(C)C)cc1 [compound 33, 1-Ethyl-3-methyl-5-(4-dimethylaminophenyl)biuret] | 87% | 25% | 4/4 | 62.5% | – | 0/4 | inhibition in vivo at 100 mg/kg [3, 7]: 30%
15 | CCNC(=O)N(C)C(=O)Nc1ccc(OC)cc1 [compound 35, 1-Ethyl-3-methyl-5-(4-methoxyphenyl)biuret] | 112% | 62.5% | 4/4 | – | 19% | 0/4 | inhibition in vivo at 100 mg/kg ([5]; 100 mg/kg oral, mice): 87.5%
16 | CCNC(=O)N(C)C(=O)Nc1ccc(C)cc1 [compound 38, 1-Ethyl-3-methyl-5-(4-methylphenyl)biuret] | 80% | 25% | 3/4 | – | – | 0/4 | inhibition in vivo at 100 mg/kg ([5]; 100 mg/kg oral, mice): 87.5%
17 | CCNC(=O)N(C)C(=O)Nc1ccc(C)c(C)c1 [compound 39, 1-Ethyl-3-methyl-5-(3,4-dimethylphenyl)biuret] | 8% | 37.5% | 0/4 | 50% | – | – | –
18 | CCCCCNC(=O)N(C)C(=O)Nc1ccccc1 [compound 52, 1-n-Pentyl-3-methyl-5-phenylbiuret] | 38% | 37.5% | 0/4 | 62.5% | – | – | –
19 | CN(C)CCNC(=O)N(C)C(=O)Nc1ccccc1 [compound 55, 1-(2-Dimethylaminoethyl)-3-methyl-5-phenylbiuret] | – | 12.5% | – | 12.5% | 22% | 3/4 | Acute toxicity, death number of mice/number of mice tested ([1]; 500 mg/kg oral): 2/4
20 | CN(C(=O)NCCO)C(=O)Nc1ccccc1 [compound 56, 1-(2-Hydroxyethyl)-3-methyl-5-phenylbiuret] | – | 37.5% | 0/4 | 62.5% | 42% | – | –
21 | CONC(=O)N(C)C(=O)Nc1ccccc1 [compound 63, 1-Methoxy-3-methyl-5-phenylbiuret] | – | 25% | 4/4 | 50% | – | 0/4 | inhibition in vivo at 100 mg/kg [3, 7]: 50%
